Experimental data as given in patent US20250017914A1, “6-AZA-QUINOLINE DERIVATIVES AND RELATED USES” (Black Diamond Therapeutics, Inc., priority 2021, published 2025).

Biological target: T1, BaF3 BRAF-KIAA1549 fusion cells (Homo sapiens, UniProt P15056)
T1 construct: The BRAF-KIAA1549 fusion mutant was subcloned into pMXs-IRES-Blasticidin (RTV-016, Cell Biolabs, San Diego, CA); No tag given; Q9HCM3 (UPF0606 protein KIAA1549)
Assay: BaF3 BRAF-KIAA1549 fusion cell proliferation assay (CellTiterGlo, 96 hours)
Type: cell-based
Details: Table A1
Experimental: Retroviral Production: The BRAF-KIAA1549 fusion mutant was subcloned into pMXs-IRES-Blasticidin (RTV-016, Cell Biolabs, San Diego, CA). Retrovirus was produced by transfection of HEK 293T cells with the retroviral BRAF mutant expression vector pMXs-IRES-Blasticidin (RTV-016, Cell Biolabs), pCMV-Gag-Pol vector and pCMV-VSV-G-Envelope vector. Briefly, HEK 293T cells were plated in Poly-D-lysine coated 6-well plate (2.5×10^5 cells per well) and incubated overnight. The next day, retroviral plasmids (1 μg of BRAF-KIAA fusion mutant, 0.32 μg of pCMV-Gag-Pol and 0.165 μg pCMV-VSV-G) were mixed in 300 μL of Optimem (31985, Life Technologies). The mixture was incubated at room temperature for 5 minutes and then added to Optimem containing transfection reagent Lipofectamine (11668, Invitrogen) and incubated for 20 minutes. The mixture was then added dropwise to HEK 293T cells. The next day the medium was replaced with fresh culture medium and retrovirus was harvested at 24 hours.
Generation of BRAF-KIAA1549 fusion stable cell line: BaF3 cells were plated in V-bottom 96 well plate (COSTAR #3894) in 80 μL of RPMI/10% FBS and 0.01 ng/mL mouse IL-3, supplemented with 8 μg/mL polybrene (4×10^4 cells/well). Cells were transduced with 20 μL of BRAF-KIAA1549 fusion viral supernatant by centrifuging for 30 minutes at 1000 rpm. Cells were placed in a 37° C. incubator overnight. Next day 100 μL of RPMI/10% FBS and 0.01 ng/mL mouse IL-3 was added. After 24 hours, 100 μL of cells were transferred to a 24 well plate containing 900 μL of RPM/10% FBS and 15 μg/mL Blasticidin. Contents of the 24 well plate were sampled for cell viability via CellTiterGlo (Promega) over a 2-week period.
Assay for cell proliferation: BaF3 BRAF-KIAA1549 fusion cells were resuspended at 1.5×10^5 c/mL in RPMI containing 10% Heat Inactivated FBS, 1% L-glutamine and dispensed in duplicate (7×10^4 c/well) into 384 well plates. To determine the effect of compound on cell proliferation, BaF3 BRAF-KIAA1549 fusion cells were incubated for 96 hours in the presence of vehicle control (DMSO) or compound at varying concentrations. Inhibition of cell growth was determined by luminescent quantification (Envision by Perkin Elmer) of intracellular ATP content using CellTiterGlo (Promega), according to the protocol provided by the manufacturer. To determine the IC50 values, the vehicle-treated cells were normalized as viable cells and analyzed using the CDD Vault, Collaborative Drug Discovery, Burlingame, CA (the Levenberg-Marquardt algorithm; Levenberg, K., […]; Marquardt, D., 1963).
Tables A1 and A2 assign each compound a code for potency in the BaF3 BRAF-KIAA1549 fusion cell proliferation assay: A, B, C, or D. According to the code, A represents an IC50 value <20 nM; B represents an IC50 value ≥20 nM and <100 nM; C represents an IC50 value ≥100 nM and <500 nM; and D represents an IC50 value ≥500 nM.

T1 sequence (P15056 whole entry, change not shown, the tested form may be a part): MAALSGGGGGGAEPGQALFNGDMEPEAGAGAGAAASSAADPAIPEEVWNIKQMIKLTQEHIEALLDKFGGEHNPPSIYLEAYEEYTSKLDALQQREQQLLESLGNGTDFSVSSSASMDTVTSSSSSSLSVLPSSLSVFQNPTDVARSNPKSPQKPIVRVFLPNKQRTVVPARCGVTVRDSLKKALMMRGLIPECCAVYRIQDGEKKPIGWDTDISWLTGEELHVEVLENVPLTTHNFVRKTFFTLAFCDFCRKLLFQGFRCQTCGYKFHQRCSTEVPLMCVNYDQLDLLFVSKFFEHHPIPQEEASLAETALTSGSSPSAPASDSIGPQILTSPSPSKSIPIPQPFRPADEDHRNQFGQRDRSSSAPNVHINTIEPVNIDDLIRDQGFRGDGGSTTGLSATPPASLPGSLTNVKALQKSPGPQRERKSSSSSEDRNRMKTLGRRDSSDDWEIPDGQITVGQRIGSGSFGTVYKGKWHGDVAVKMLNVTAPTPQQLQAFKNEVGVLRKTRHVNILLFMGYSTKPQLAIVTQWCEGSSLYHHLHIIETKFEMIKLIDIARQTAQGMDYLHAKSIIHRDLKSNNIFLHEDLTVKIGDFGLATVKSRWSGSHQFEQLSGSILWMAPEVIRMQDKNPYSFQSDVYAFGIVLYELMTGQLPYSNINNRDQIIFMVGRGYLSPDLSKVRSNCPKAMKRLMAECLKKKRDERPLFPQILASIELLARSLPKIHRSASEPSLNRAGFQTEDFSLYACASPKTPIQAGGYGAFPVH

Structure (SMILES)	GI50 [nM]
CNc1cc2ncc(-c3cc(NC(=O)c4cc(C(F)(F)F)ccn4)cnc3C)cc2cn1 [Compound 20, N-(6-Methyl-5-(7-(methylamino)-1,6-naphthyridin-3-yl)pyridin-3-yl)-4-(trifluoromethyl)picolinamide]	< 20
CNc1cc2ncc(-c3cc(NC(=O)c4cncc(C(F)(F)F)c4)cnc3C)cc2cn1 [Compound 21, N-(6-Methyl-5-(7-(methylamino)-1,6-naphthyridin-3-yl)pyridin-3-yl)-5-(trifluoromethyl)nicotinamide]	20 to 100
CNc1cc2ncc(-c3cc(NC(=O)c4cc(C(F)F)ccn4)cnc3C)cc2cn1 [Compound 22, 4-(Difluoromethyl)-N-(6-methyl-5-(7-(methylamino)-1,6-naphthyridin-3-yl)pyridin-3-yl)picolinamide]	20 to 100
CNc1cc2ncc(-c3cc(NC(=O)c4cc(C(C)(F)F)ccn4)cnc3C)cc2cn1 [Compound 23, 4-(1,1-Difluoroethyl)-N-(6-methyl-5-(7-(methylamino)-1,6-naphthyridin-3-yl)pyridin-3-yl)picolinamide]	20 to 100
CNc1cc2ncc(-c3cc(NC(=O)c4ccnc(C(C)(C)F)c4)cnc3C)cc2cn1 [Compound 24, 2-(2-Fluoropropan-2-yl)-N-(6-methyl-5-(7-(methylamino)-1,6-naphthyridin-3-yl)pyridin-3-yl)isonicotinamide]	< 20
CNc1cc2ncc(-c3cc(NC(=O)c4cc(C(F)(F)F)c(C)cn4)cnc3C)cc2cn1 [Compound 25, 5-Methyl-N-(6-methyl-5-(7-(methylamino)-1,6-naphthyridin-3-yl)pyridin-3-yl)-4-(trifluoromethyl)picolinamide]	20 to 100
CNc1cc2ncc(-c3cc(NC(=O)c4nccc(C(F)(F)F)c4Cl)cnc3C)cc2cn1 [Compound 26, 3-Chloro-N-(6-methyl-5-(7-(methylamino)-1,6-naphthyridin-3-yl)pyridin-3-yl)-4-(trifluoromethyl)picolinamide]	20 to 100
CNc1cc2ncc(-c3cc(NC(=O)c4ccnc(C(F)(F)F)c4)cnc3C)cc2cn1 [Compound 27, N-(6-Methyl-5-(7-(methylamino)-1,6-naphthyridin-3-yl)pyridin-3-yl)-2-(trifluoromethyl)isonicotinamide]	< 20
CNc1cc2ncc(-c3cc(NC(=O)c4ccnc(C(F)F)c4)cnc3C)cc2cn1 [Compound 28, 2-(Difluoromethyl)-N-(6-methyl-5-(7-(methylamino)-1,6-naphthyridin-3-yl)pyridin-3-yl)isonicotinamide]	100 to 500
CNc1cc2ncc(-c3cc(NC(=O)c4ccnc(C(C)(F)F)c4)cnc3C)cc2cn1 [Compound 29, 2-(1,1-Difluoroethyl)-N-(6-methyl-5-(7-(methylamino)-1,6-naphthyridin-3-yl)pyridin-3-yl)isonicotinamide]	< 20
CNc1cc2ncc(-c3cc(NC(=O)c4cc(C(C)(C)C#N)ccn4)cnc3C)cc2cn1 [Compound 30, 4-(2-Cyanopropan-2-yl)-N-(6-methyl-5-(7-(methylamino)-1,6-naphthyridin-3-yl)pyridin-3-yl)picolinamide]	20 to 100
CNc1cc2ncc(-c3cc(NC(=O)c4cc(C5(C#N)CCC5)ccn4)cnc3C)cc2cn1 [Compound 31, 4-(1-Cyanocyclobutyl)-N-(6-methyl-5-(7-(methylamino)-1,6-naphthyridin-3-yl)pyridin-3-yl)picolinamide]	20 to 100
CNc1cc2ncc(-c3cc(NC(=O)c4cc(C5(C#N)CC5)ccn4)cnc3C)cc2cn1 [Compound 32, 4-(1-Cyanocyclopropyl)-N-(6-methyl-5-(7-(methylamino)-1,6-naphthyridin-3-yl)pyridin-3-yl)picolinamide]	< 20
CNc1cc2ncc(-c3cc(NC(=O)c4ccnc(C5(F)CC5)c4)cnc3C)cc2cn1 [Compound 33, 2-(1-Fluorocyclopropyl)-N-(6-methyl-5-(7-(methylamino)-1,6-naphthyridin-3-yl)pyridin-3-yl)isonicotinamide]	< 20
